Results from patent US5283244A, “Fused pyrazine derivatives” (Yamanouchi Pharmaceutical Co., Ltd., priority 1990, dated 1994).
Structures can show the parent of a compound that is named as a salt. Values belong to the compound of their own block, whether it stands above or below them.

Tests used:
[1] = tested on: NMDA-induced neuropathy, animal models of epilepsy or brain ischemia; conditions: reported in the literature; cited from earlier work
AMPA receptor = experiment: [3H]-AMPA binding inhibitory activity; conditions: rat cerebral membrane
Description: Determination of [^3 H]-AMPA Binding Activity
A mixture (0.5 ml) of about 45 nM [^3 H]-AMPA (2-amino-3-(3-hydroxy-5-methyl-4-isoxazole)propionic acid), about […] of rat cerebral membrane specimen and the test compound was allowed to react on ice-water for 45 minutes. The amount of [^3 H]-AMPA bound to quisqualic acid receptors was determined by the filtration method. Of the total amount of binding, the portion substituted for by 10 μM quisqualic acid was regarded as specific binding. The test compound was evaluated by determining the percentage inhibition of the specific binding.

DBA/2 mice = experiment: Audiogenic convulsion inhibitory activity in DBA/2 mice; format: in vivo; conditions: Mus musculus, ip, 0.25 h, intraperitoneal, given 15 minutes before sound stimulation, read-out: dose at which audiogenic convulsions were inhibited
Description: Determination of Audiogenic Convulsion Inhibitory Activity in DBA/2 Mice
Ten male mice, 21-28 days old, were placed in a soundproof box and loaded with a sound stimulus of 12 KHz and 120 dB for 1 minute or until the mice developed tonic convulsions.
The test compound was suspended in 0.5% methylcellulose solution or dissolved in physiological saline and administered intraperitoneally 45 or 15 minutes before sound stimulation.
The effect of the test compound was evaluated according to the onset of convulsion and the minimum effective dose (MED) was determined.

[2] = tested on: nerve cells in the hippocampus CA1; experiment: Neuron-protective action in the hippocampus, gerbil model of ischemia; format: in vivo; conditions: administered 60, 70 and 85 minutes after 5-minute ischemia (regimen 2, 30 mg/kg/dose i.p.)
Description: Neuron-Protective Action in the Hippocampus
The protective action on nerve cell necrosis due to cerebral ischemia was tested using a gerbil model of ischemia constructed by occlusion of the bilateral common carotid arteries.
The bilateral common carotid arteries of the gerbil were occluded for 5 minutes under halothane anesthesia with the animal kept warm to avoid hypothermia and, then, the animal was allowed to recover from anesthesia. After 4 days, the brain was isolated and sections were prepared for histological examination of the degree of neuronal damage in the hippocampus CA1.
The test compound, either suspended in 0.5% methylcellulose solution or dissolved in physiological saline, was administered intraperitoneally. Two dosage regimens were employed. In regimen 1, 30 mg/kg/dose was administered 45 and 15 minutes before ischemia and 5 minutes and 1, 2, 3, 6 and 24 hours after obtaining re-patency. In regimen 2, 30 mg/kg/dose was administered 60, 70 and 85 minutes after obtaining re-patency.
Histopathological examination was performed using a light microscope. The degree of nerve cell impairment in the hippocampus CA1 area was rated on a 4-point scale of no lesion (score 0), slight necrosis (score 1), moderate necrosis (score 2) and complete necrosis (score 3).

[3] = tested on: animal model of brain ischemia; conditions: reported in the literature; cited from earlier work

SMILES: NC(CCCP(=O)(O)O)C(=O)O (stereo not shown) [2-amino-5-phosphonovalerianic acid]
efficacy in NMDA-induced neuropathy and in animal models of epilepsy or brain ischemia [1]: effective

SMILES: NC(CCCCCP(=O)(O)O)C(=O)O (stereo not shown) [2-amino-7-phosphonoheptanoic acid]
efficacy in NMDA-induced neuropathy and in animal models of epilepsy or brain ischemia [1]: effective

AMPA receptor binding inhibitory activity (AMPA receptor; at 1 μM): 96%
Ki (AMPA receptor): 21 nM
SMILES: O=c1[nH]c2cc([N+](=O)[O-])c(-n3ccnc3)cc2n(O)c1=O [Example 8, 1-hydroxy-7-imidazolyl-6-nitroquinoxaline-2,3-(1H,4H)-dione]

SMILES: O=c1[nH]c2cc(-n3ccnc3)c(C(F)(F)F)cc2[nH]c1=O [Example 9, 6-(1-imidazolyl)-7-trifluoromethylquinoxaline-2,3-(1H,4H)-dione hydrochloride hydrate]
minimal effective dose (DBA/2 mice): 3 mg/kg

SMILES: O=c1[nH]c2cc(-n3ccnc3)c([N+](=O)[O-])cc2[nH]c1=O [Example 15, 6-imidazolyl-7-nitroquinoxaline-2,3-(1H,4H)-dione]
lesion score (hippocampus CA1, scale 0-3) [2]: 1.2
neuron protecting activity [2]: 60%
minimal effective dose (DBA/2 mice): 3 mg/kg

SMILES: NC1CCN(O)C1=O (stereo not shown) [HA-966]
efficacy in an animal model of brain ischemia [3]: effective

SMILES: NS(=O)(=O)c1cccc2c1c([N+](=O)[O-])cc1[nH]c(=O)c(=O)[nH]c12 [NBQX]
efficacy in an animal model of brain ischemia [3]: effective
